Experimental data: PubChem BioAssay (NCI)
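A five-concentration, 48-hour dose response in 96-well plates underlies each endpoint, interpolated linearly between surrounding concentrations. GI50: concentration for 50% inhibition of growth. TGI is the concentration that stops growth completely.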

Legend:
Assay in all cases: NCI-60 cell line screen, 48 h
786-0 renal = tested on: 786-0 renal
NCI-H23 lung = tested on: NCI-H23 lung
HT29 colon = tested on: HT29 colon
SF-295 CNS = tested on: SF-295 CNS
SNB-19 CNS = tested on: SNB-19 CNS
SR leukemia = tested on: SR leukemia
HCC-2998 colon = tested on: HCC-2998 colon
ACHN renal = tested on: ACHN renal
HL-60(TB) leukemia = tested on: HL-60(TB) leukemia
SF-268 CNS = tested on: SF-268 CNS
A549 NSCLC = tested on: A549 NSCLC
SK-MEL-5 melanoma = tested on: SK-MEL-5 melanoma
CCRF-CEM leukemia = tested on: CCRF-CEM leukemia
T-47D breast = tested on: T-47D breast
K-562 leukemia = tested on: K-562 leukemia
SF-539 CNS = tested on: SF-539 CNS
NCI-H522 lung = tested on: NCI-H522 lung
CAKI-1 renal = tested on: CAKI-1 renal
SK-MEL-2 melanoma = tested on: SK-MEL-2 melanoma
HS 578T breast = tested on: HS 578T breast
OVCAR-5 ovarian = tested on: OVCAR-5 ovarian
A498 renal = tested on: A498 renal
U251 CNS = tested on: U251 CNS
RPMI-8226 leukemia = tested on: RPMI-8226 leukemia
M14 melanoma = tested on: M14 melanoma
NCI-H226 lung = tested on: NCI-H226 lung
MOLT-4 leukemia = tested on: MOLT-4 leukemia
SNB-75 CNS = tested on: SNB-75 CNS
SK-OV-3 ovarian = tested on: SK-OV-3 ovarian
BT-549 breast = tested on: BT-549 breast
OVCAR-3 ovarian = tested on: OVCAR-3 ovarian
HCT-15 colon = tested on: HCT-15 colon
MDA-MB-435 = tested on: MDA-MB-435
IGROV1 ovarian = tested on: IGROV1 ovarian
RXF 393 renal = tested on: RXF 393 renal
LOX IMVI melanoma = tested on: LOX IMVI melanoma
NCI/ADR-RES ovarian = tested on: NCI/ADR-RES ovarian
HOP-62 NSCLC = tested on: HOP-62 NSCLC
TK-10 renal = tested on: TK-10 renal
HOP-92 NSCLC = tested on: HOP-92 NSCLC
PC-3 prostate = tested on: PC-3 prostate
OVCAR-8 ovarian = tested on: OVCAR-8 ovarian
SK-MEL-28 melanoma = tested on: SK-MEL-28 melanoma
UACC-62 melanoma = tested on: UACC-62 melanoma
SN12C renal = tested on: SN12C renal
NCI-H460 lung = tested on: NCI-H460 lung
MALME-3M melanoma = tested on: MALME-3M melanoma
UO-31 renal = tested on: UO-31 renal
DU-145 prostate = tested on: DU-145 prostate
UACC-257 melanoma = tested on: UACC-257 melanoma
EKVX NSCLC = tested on: EKVX NSCLC
OVCAR-4 ovarian = tested on: OVCAR-4 ovarian
SW-620 colon = tested on: SW-620 colon
KM12 colon = tested on: KM12 colon
MDA-MB-231 breast = tested on: MDA-MB-231 breast
HCT-116 colon = tested on: HCT-116 colon
MCF7 breast = tested on: MCF7 breast
COLO 205 colon = tested on: COLO 205 colon

## O=C1NN(C(=O)c2ccccc2)C(c2ccc(Cl)c(Cl)c2)=C/C1=C\c1ccccc1[N+](=O)[O-]
786-0 renal
  GI50: 2200 nM
  TGI: > 6750 nM
NCI-H23 lung
  GI50: 1040 nM
  TGI: 6500 nM
HT29 colon
  GI50: 2300 nM
  TGI: > 6750 nM
SF-295 CNS
  GI50: 1440 nM
  TGI: 4160 nM
SNB-19 CNS
  GI50: 339 nM
  TGI: > 6750 nM
SR leukemia
  GI50: 2070 nM
  TGI: > 6750 nM
HCC-2998 colon
  GI50: 1810 nM
  TGI: 5480 nM
ACHN renal
  GI50: 3090 nM
  TGI: > 6750 nM
HL-60(TB) leukemia
  GI50: 2010 nM
  TGI: > 6750 nM
SF-268 CNS
  GI50: 3970 nM
  TGI: > 6750 nM
A549 NSCLC
  GI50: 2110 nM
  TGI: > 6750 nM
SK-MEL-5 melanoma
  GI50: 1170 nM
  TGI: 2190 nM
CCRF-CEM leukemia
  GI50: 1910 nM
  TGI: > 6750 nM
T-47D breast
  GI50: 2250 nM
  TGI: > 6750 nM
K-562 leukemia
  GI50: 1900 nM
  TGI: > 6750 nM
SF-539 CNS
  GI50: 2470 nM
  TGI: > 6750 nM
NCI-H522 lung
  GI50: 1240 nM
  TGI: 3770 nM
CAKI-1 renal
  GI50: 2270 nM
  TGI: > 6750 nM
SK-MEL-2 melanoma
  GI50: 3110 nM
  TGI: > 6750 nM
HS 578T breast
  GI50: 2460 nM
  TGI: > 6750 nM
OVCAR-5 ovarian
  GI50: 1960 nM
  TGI: > 6750 nM
A498 renal
  GI50: 2210 nM
  TGI: 6210 nM
U251 CNS
  GI50: 897 nM
  TGI: > 6750 nM
RPMI-8226 leukemia
  GI50: 1770 nM
  TGI: > 6750 nM
M14 melanoma
  GI50: 1900 nM
  TGI: > 6750 nM
NCI-H226 lung
  GI50: 1440 nM
  TGI: > 6750 nM
MOLT-4 leukemia
  GI50: 2040 nM
  TGI: > 6750 nM
SNB-75 CNS
  GI50: 1270 nM
  TGI: > 6750 nM
SK-OV-3 ovarian
  GI50: 4000 nM
  TGI: > 6750 nM
BT-549 breast
  GI50: 1180 nM
  TGI: 5400 nM
OVCAR-3 ovarian
  GI50: 2400 nM
  TGI: > 6750 nM
HCT-15 colon
  GI50: 923 nM
  TGI: 2990 nM
MDA-MB-435
  GI50: > 6750 nM
  TGI: > 6750 nM
IGROV1 ovarian
  GI50: 1590 nM
  TGI: > 6750 nM
RXF 393 renal
  GI50: 1670 nM
  TGI: 5350 nM
LOX IMVI melanoma
  GI50: 1140 nM
  TGI: 3490 nM
NCI/ADR-RES ovarian
  GI50: 2290 nM
  TGI: > 6750 nM
HOP-62 NSCLC
  GI50: 3440 nM
  TGI: > 6750 nM
TK-10 renal
  GI50: 4260 nM
  TGI: > 6750 nM
HOP-92 NSCLC
  GI50: 1430 nM
  TGI: > 6750 nM
PC-3 prostate
  GI50: 1520 nM
  TGI: > 6750 nM
OVCAR-8 ovarian
  GI50: 2630 nM
  TGI: > 6750 nM
SK-MEL-28 melanoma
  GI50: 2720 nM
  TGI: > 6750 nM
UACC-62 melanoma
  GI50: 1440 nM
  TGI: > 6750 nM
SN12C renal
  GI50: 2400 nM
  TGI: > 6750 nM
NCI-H460 lung
  GI50: 1780 nM
  TGI: 5200 nM
MALME-3M melanoma
  GI50: 4530 nM
  TGI: > 6750 nM
UO-31 renal
  GI50: 735 nM
  TGI: 6700 nM
DU-145 prostate
  GI50: 2780 nM
  TGI: > 6750 nM
UACC-257 melanoma
  GI50: 5230 nM
  TGI: > 6750 nM
EKVX NSCLC
  GI50: 2810 nM
  TGI: > 6750 nM
OVCAR-4 ovarian
  GI50: 2260 nM
  TGI: > 6750 nM
SW-620 colon
  GI50: 2270 nM
  TGI: > 6750 nM
KM12 colon
  GI50: 2340 nM
  TGI: > 6750 nM
MDA-MB-231 breast
  GI50: > 6750 nM
  TGI: > 6750 nM
HCT-116 colon
  GI50: 2030 nM
  TGI: > 6750 nM
MCF7 breast
  GI50: 1820 nM
  TGI: > 6750 nM
COLO 205 colon
  GI50: 1520 nM
  TGI: 3490 nM
